Measurements taken from patent publication US6616922B2, “Antibacterial compositions” (The Dial Corporation, priority 2001, dated 2003).

Key:
S. aureus = assay: Time kill test (rapid germicidal activity) against S. aureus; assay type: cell-based, Staphylococcus aureus; details: 2% active aqueous solution
Method: (§1) a) Determination of Rapid Germicidal (Time Kill) Activity of Antibacterial Products. The activity of antibacterial compositions was measured by the time kill method, whereby the survival of challenged organisms exposed to an antibacterial test composition is determined as a function of time. In this test, a diluted aliquot of the composition is brought into contact with a known population of test bacteria for a specified time period at a specified temperature. The test composition is neutralized at the end of the time period, which arrests the antibacterial activity of the composition. The percent or, alternatively, log reduction from the original bacteria population is calculated. In general, the time kill method is known to those skilled in the art. The composition can be tested at any concentration from 0-100%. The choice of which concentration to use is at the discretion of the investigator, and suitable concentrations are readily determined by those skilled in the art. […] The test sample is placed in a sterile 250 ml beaker equipped with a magnetic stirring bar and the sample volume is brought to 100 ml, if needed, with sterile deionized water. All testing is performed in triplicate, the results are combined, and the average log reduction is reported. The choice of contact time period also is at the discretion of the investigator. Any contact time period can be chosen. […] The contact temperature also can be any temperature, typically room temperature, or about 25 degrees Celsius. The bacterial suspension, or test inoculum, is prepared by growing a bacterial culture on any appropriate solid media (e.g., agar). The bacterial population then is washed from the agar with sterile physiological saline and the population of the bacterial suspension is adjusted to about 10^8 colony forming units per ml (cfu/ml). The table below lists-the test bacterial cultures used in the following tests and includes the name of the bacteria, the ATCC (American Type Culture Collection) identification number, and the abbreviation for the name of the organism used hereafter. [table] The beaker containing the test composition is placed in a water bath (if constant temperature is desired), or placed on a magnetic stirrer (if ambient laboratory temperature is desired). The sample then is inoculated with 1.0 ml of the test bacteria suspension. The inoculum is stirred with the test composition for the predetermined contact time. […] Decimal dilutions to a countable range then are made. The dilutions can differ for different organisms. Plate selected dilutions in triplicate on TSA+ plates (TSA+ is Trypticase Soy Agar with Lecithin and Polysorbate 80). […] The control count (numbers control) is determined by conducting the procedure as described above with the exception that THT is used in place of the test composition. The plate counts are converted to cfu/ml for the numbers control and samples, respectively, by standard microbiological methods. The log reduction is calculated using the formula Log reduction=log10 (numbers control)−log10 (test sample survivors).

E. coli = assay: Time kill test (rapid germicidal activity) against E. coli; assay type: cell-based, Escherichia coli; details: 2% active aqueous solution
Method: as §1

## Lauramine oxide
S. aureus; pH 4.93, 30 seconds
  log reduction after 30 seconds S. aureus: 2.11 log
S. aureus; pH 5.50, 30 seconds
  log reduction after 30 seconds S. aureus: >4.38 log
S. aureus; pH 6.02, 30 seconds
  log reduction after 30 seconds S. aureus: >4.39 log
S. aureus; pH 6.5, 30 seconds
  log reduction after 30 seconds S. aureus: >4.39 log
S. aureus; pH 7.0, 30 seconds
  log reduction after 30 seconds S. aureus: >4.39 log
S. aureus; pH 7.53, 30 seconds
  log reduction after 30 seconds S. aureus: >4.39 log
S. aureus; pH 8.94, 30 seconds
  log reduction after 30 seconds S. aureus: 4.33 log
S. aureus; pH 10.14, 30 seconds
  log reduction after 30 seconds S. aureus: 3.75 log
E. coli; pH 4.93, 30 seconds
  log reduction after 30 seconds E. coli: >5.32 log
E. coli; pH 5.50, 30 seconds
  log reduction after 30 seconds E. coli: >4.70 log
E. coli; pH 6.02, 30 seconds
  log reduction after 30 seconds E. coli: >4.70 log
E. coli; pH 6.5, 30 seconds
  log reduction after 30 seconds E. coli: >4.70 log
E. coli; pH 7.0, 30 seconds
  log reduction after 30 seconds E. coli: >5.32 log
E. coli; pH 7.53, 30 seconds
  log reduction after 30 seconds E. coli: 0.88 log
E. coli; pH 8.94, 30 seconds
  log reduction after 30 seconds E. coli: 0.27 log
E. coli; pH 10.14, 30 seconds
  log reduction after 30 seconds E. coli: 0.11 log
